The source of these data is US20110053836A1, “USE OF DEFENSINS AGAINST TUBERCULOSIS” (priority 2008, published 2011).

Where two headings read alike, the source gives them in different places.

What all share (format): cell-based, Mycobacterium tuberculosis
One experiment deals with M. tuberculosis H37Rv. The settings on record: for Fold of reduction: RLU relative to buffer control; for MIC: concentration that reduces RLU by 90% (1 log), 96 hours.
In experiment [1] the test system is M. tuberculosis. How it is done:
The validation of the Relative Light Unit assay (RLU) was carried out by comparing it to conventional Colony Forming Unit (CFU) assay. In this assay, the cells were exposed to the different concentrations of the peptide for 96 hours and then plated onto 7H10 plates. The plates were incubated at 37° C. for 30 days and the colonies were enumerated.

For experiment [2], the system named is M. tuberculosis. The source holds these as a separate data set.
A further experiment has as its system H37Rv expressing LUX. The conditions noted are these: 6.25 micrograms/ml; ~0.1 OD600 and ~1.0 OD600; 96 hours.
Setting [3] is: peptide 25 micrograms/ml, buffer control 53503.
Where [4] appears, read: peptide 6.25 micrograms/ml, buffer control 75380.

In the experiment on M. tuberculosis H37Rv (peptide 25 micrograms/ml), “SEQ ID NO: 16: plectasin variant, substitutions D9G + Q14R + K23R compared to SEQ ID NO: 2 (GFGCNGPWGEDDMRCHNHCKSIRGYKGGYCAKGGFVCKCY)” came in with a Fold of reduction of 11.9. Besides, in the experiment with M. tuberculosis H37Rv (setting [3]), the RLU is 4495.
For the substance “SEQ ID NO: 14: plectasin variant, substitutions N5G + D9S + M13L + N17Q + A31T compared to SEQ ID NO: 2 (GFGCGGPWSEDDLQCHQHCKSIKGYKGGYCTKGGFVCKCY)”, in the experiment with M. tuberculosis [1] (96 hours exposure, plated on 7H10, 30 days), the “MBC obtained by CFU” value amounted to 6.25 micrograms/ml. Moreover, in the experiment on M. tuberculosis [1] (MIC by RLU equivalent to MBC by CFU), the “Mode of action (bactericidal)” value is listed as “bactericidal”. The Fold of reduction with M. tuberculosis H37Rv (peptide 25 micrograms/ml) was found to be 49.4. The RLU with M. tuberculosis H37Rv (setting [3]) was 1083. For the same substance, the “Inhibition of growth by OD600” value with M. tuberculosis [2] (6.25 micrograms/ml, T-25 flasks) is “completely inhibit the growth”. The “MIC (=MBC)” value with M. tuberculosis [2] (confirmed by the assays of Examples 3 and 4 (CFU, OD600)) stood at 6.25 micrograms/ml. Moreover, the “Activity against early log and early stationary cells” value in the experiment on H37Rv expressing LUX is “potent activity against organisms in both early log and early stationary phases of growth”.
On to “plectasin [SEQ ID NO: 2, reference compound]”, for which the MIC result in the experiment with M. tuberculosis H37Rv was “around 25 micrograms/ml”. This substance yielded a Fold of reduction in the experiment with M. tuberculosis H37Rv (peptide 25 micrograms/ml) of 25.7. Moreover, in the experiment with M. tuberculosis H37Rv (setting [3]), the RLU turned out to be 2070.
Turning to “SEQ ID NO: 7: plectasin variant, substitutions Q14R + K20R compared to SEQ ID NO: 2 (GFGCNGPWDEDDMRCHNHCRSIKGYKGGYCAKGGFVCKCY)”, the MIC with M. tuberculosis H37Rv is 6.25 micrograms/ml. This substance also registered a Fold of reduction in the experiment on M. tuberculosis H37Rv (peptide 25 micrograms/ml) of 40.0. The same substance showed an RLU with M. tuberculosis H37Rv (setting [3]) of 1339.
“SEQ ID NO: 5: plectasin variant, substitution Q14F compared to SEQ ID NO: 2 (GFGCNGPWDEDDMFCHNHCKSIKGYKGGYCAKGGFVCKCY)”: the Fold of reduction in the experiment on M. tuberculosis H37Rv (peptide 25 micrograms/ml) amounted to 34.1. Further, the RLU with M. tuberculosis H37Rv (setting [3]) worked out at 1567.
“SEQ ID NO: 12: plectasin variant, substitutions N5S + D9S + M13L + Q14R + N17V + A31S compared to SEQ ID NO: 2 (GFGCSGPWSEDDLRCHVHCKSIKGYKGGYCSKGGFVCKCY)” displayed a Fold of reduction with M. tuberculosis H37Rv (peptide 25 micrograms/ml) of 13.7. In addition, the RLU in the experiment on M. tuberculosis H37Rv (setting [3]) stood at 3901.
For the substance “SEQ ID NO: 11: plectasin variant, substitutions Q14R + K26R compared to SEQ ID NO: 2 (GFGCNGPWDEDDMRCHNHCKSIKGYRGGYCAKGGFVCKCY)”, in the experiment with M. tuberculosis H37Rv (peptide 25 micrograms/ml), the Fold of reduction was 14.8. The RLU in the experiment on M. tuberculosis H37Rv (setting [3]) was found to be 3604.
For the substance “SEQ ID NO: 9: plectasin variant, substitutions N5R + M13V compared to SEQ ID NO: 2 (GFGCRGPWDEDDVQCHNHCKSIKGYKGGYCAKGGFVCKCY)”, the MIC in the experiment with M. tuberculosis H37Rv is listed as 6.25 micrograms/ml. In the experiment with M. tuberculosis H37Rv (peptide 25 micrograms/ml), this substance yielded a Fold of reduction of 31.8. The substance also had an RLU in the experiment with M. tuberculosis H37Rv (setting [3]) of 1685.
In the experiment with M. tuberculosis H37Rv (peptide 25 micrograms/ml), “SEQ ID NO: 10: plectasin variant, substitutions M13K + K38R compared to SEQ ID NO: 2 (GFGCNGPWDEDDKQCHNHCKSIKGYKGGYCAKGGFVCRCY)” gave a Fold of reduction of 46.4. The substance also displayed an RLU in the experiment on M. tuberculosis H37Rv (setting [3]) of 1152.
For “SEQ ID NO: 4: plectasin variant, substitution K26R compared to SEQ ID NO: 2 (GFGCNGPWDEDDMQCHNHCKSIKGYRGGYCAKGGFVCKCY)”, in that order: 28.1 and 1903.
As for “SEQ ID NO: 13: plectasin variant, substitutions N5G + M13L compared to SEQ ID NO: 2 (GFGCGGPWDEDDLQCHNHCKSIKGYKGGYCAKGGFVCKCY)”, in the experiment with M. tuberculosis H37Rv (peptide 25 micrograms/ml), the Fold of reduction is 20.8. The substance further gave an RLU in the experiment with M. tuberculosis H37Rv (setting [3]) of 2576.
On the same counts, the results for “SEQ ID NO: 15: plectasin variant, substitutions D9N + M13L + Q14R compared to SEQ ID NO: 2 (GFGCNGPWNEDDLRCHNHCKSIKGYKGGYCAKGGFVCKCY)” are 12.9 and 4165.
For “SEQ ID NO: 8: plectasin variant, substitution Q14L compared to SEQ ID NO: 2 (GFGCNGPWDEDDMLCHNHCKSIKGYKGGYCAKGGFVCKCY)”, in that order: 24.9 and 2145.
In the experiment with M. tuberculosis H37Rv, “SEQ ID NO: 20: plectasin variant, substitutions D9S + M13L + Q14K + V36L compared to SEQ ID NO: 2 (GFGCNGPWSEDDLKCHNHCKSIKGYKGGYCAKGGFLCKCY)” registered an MIC of 6.25 micrograms/ml. Besides, the Fold of reduction with M. tuberculosis H37Rv (peptide 6.25 micrograms/ml) was 14.1. In addition, the RLU in the experiment on M. tuberculosis H37Rv (setting [4]) was found to be 5355.
Take “SEQ ID NO: 18: plectasin variant, substitutions D9S + Q14R + K26R compared to SEQ ID NO: 2 (GFGCNGPWSEDDMRCHNHCKSIKGYRGGYCAKGGFVCKCY)”: the MIC against M. tuberculosis H37Rv was approximately 6.25 micrograms/ml. For the same substance, the Fold of reduction in the experiment on M. tuberculosis H37Rv (peptide 6.25 micrograms/ml) was 9.8. Further, the RLU in the experiment with M. tuberculosis H37Rv (setting [4]) was found to be 7702.
In the experiment on M. tuberculosis H37Rv (peptide 25 micrograms/ml), “SEQ ID NO: 6: plectasin variant, substitutions Q14R + K26R + K38R compared to SEQ ID NO: 2 (GFGCNGPWDEDDMRCHNHCKSIKGYRGGYCAKGGFVCRCY)” gave a Fold of reduction of 11.9. In the experiment with M. tuberculosis H37Rv (setting [3]), this substance had an RLU of 4483.
For the substance “SEQ ID NO: 17: plectasin variant, substitutions D9S + M13L + Q14R + K26R compared to SEQ ID NO: 2 (GFGCNGPWSEDDLRCHNHCKSIKGYRGGYCAKGGFVCKCY)”, in the experiment with M. tuberculosis H37Rv, the MIC is on record as approximately 6.25 micrograms/ml. Further, in the experiment with M. tuberculosis H37Rv (peptide 6.25 micrograms/ml), the Fold of reduction came to 9.1. The substance further showed an RLU in the experiment with M. tuberculosis H37Rv (setting [4]) of 8321.
For “SEQ ID NO: 19: plectasin variant, substitutions D9S + Q14K + K26R compared to SEQ ID NO: 2 (GFGCNGPWSEDDMKCHNHCKSIKGYRGGYCAKGGFVCKCY)”, in that order: approximately 6.25 micrograms/ml, 9.9 and 7630.
Turning to “SEQ ID NO: 3: plectasin variant, substitutions Q14K + K26R compared to SEQ ID NO: 2 (GFGCNGPWDEDDMKCHNHCKSIKGYRGGYCAKGGFVCKCY)”, in the experiment on M. tuberculosis H37Rv (peptide 25 micrograms/ml), the Fold of reduction was 23.2. In the experiment on M. tuberculosis H37Rv (setting [3]), this substance came in with an RLU of 2310.
